# Laboratory results reported in patent US20240000872A1, “NOVEL BACTERIOPHAGE THAT LYSES ACINETOBACTER GENUS BACTERIA HAVING RESISTANCE TO ANTIBIOTICS” (priority 2020, published 2024).
# Tested on: Acinetobacter baumannii strains
# Assay: Antibiotic susceptibility test (CLSI disk diffusion test method, read per CLSI 2016); for antibiotic susceptibility S/I/R: key: ‘S’ means susceptible; ‘I’ means intermediate; ‘R’ means resistant; for antibiotic susceptibility class: key: ‘S’ means susceptible; ‘I’ means intermediate; ‘R’ means resistant; for susceptibility category (S/I/R): key: ‘S’ means susceptible; ‘I’ means intermediate; ‘R’ means resistant
# Type: cell-based
# Design: antibiotic susceptibility test value / susceptibility test value (number given before S/I/R) / antibiotic susceptibility value: unit not given here
substance,measurement,setting,value
colistin,antibiotic susceptibility class,host strain YMC14/01/C29,S
same,antibiotic susceptibility test value,host strain YMC14/01/C29,0.5
same,antibiotic susceptibility class,host strain YMC14/01/IP122,S
same,antibiotic susceptibility test value,host strain YMC14/01/IP122,0.5
same,antibiotic susceptibility class,host strain YMC14/01/L8,S
same,antibiotic susceptibility test value,host strain YMC14/01/L8,0.5
same,antibiotic susceptibility class,host strain YMC14/01/P31,S
same,antibiotic susceptibility test value,host strain YMC14/01/P31,0.5
same,antibiotic susceptibility class,host strain YMC14/01/P117,S
same,antibiotic susceptibility test value,host strain YMC14/01/P117,0.5
same,antibiotic susceptibility class,host strain YMC14/01/P224,S
same,antibiotic susceptibility test value,host strain YMC14/01/P224,0.5
same,antibiotic susceptibility class,host strain YMC14/01/P727,S
same,antibiotic susceptibility test value,host strain YMC14/01/P727,0.5
same,antibiotic susceptibility class,host strain YMC14/01/P728,S
same,antibiotic susceptibility test value,host strain YMC14/01/P728,0.5
same,antibiotic susceptibility class,host strain YMC14/01/R130,S
same,antibiotic susceptibility test value,host strain YMC14/01/R130,0.5
same,antibiotic susceptibility class,host strain YMC14/01/R160,S
same,antibiotic susceptibility test value,host strain YMC14/01/R160,0.5
same,antibiotic susceptibility class,host strain YMC14/01/R198,S
same,antibiotic susceptibility test value,host strain YMC14/01/R198,0.5
same,antibiotic susceptibility class,host strain YMC14/01/R257,S
same,antibiotic susceptibility test value,host strain YMC14/01/R257,0.5
same,antibiotic susceptibility class,host strain YMC14/01/R270,S
same,antibiotic susceptibility test value,host strain YMC14/01/R270,0.5
same,antibiotic susceptibility class,host strain YMC14/01/R324,S
same,antibiotic susceptibility test value,host strain YMC14/01/R324,0.5
same,antibiotic susceptibility class,host strain YMC14/01/R443,S
same,antibiotic susceptibility test value,host strain YMC14/01/R443,0.5
same,antibiotic susceptibility class,host strain YMC14/01/R451,S
same,antibiotic susceptibility test value,host strain YMC14/01/R451,0.5
same,antibiotic susceptibility class,host strain YMC14/01/R560,S
same,antibiotic susceptibility test value,host strain YMC14/01/R560,0.5
same,antibiotic susceptibility class,host strain YMC14/01/R617,S
same,antibiotic susceptibility test value,host strain YMC14/01/R617,0.5
same,antibiotic susceptibility class,host strain YMC14/01/R671,S
same,antibiotic susceptibility test value,host strain YMC14/01/R671,0.5
same,antibiotic susceptibility class,host strain YMC14/01/R732,S
same,antibiotic susceptibility test value,host strain YMC14/01/R732,0.5
same,antibiotic susceptibility class,host strain YMC14/01/R767,S
same,antibiotic susceptibility test value,host strain YMC14/01/R767,0.5
same,antibiotic susceptibility class,host strain YMC14/01/R904,S
same,antibiotic susceptibility test value,host strain YMC14/01/R904,0.5
same,antibiotic susceptibility class,host strain YMC14/01/R905,S
same,antibiotic susceptibility test value,host strain YMC14/01/R905,0.5
same,antibiotic susceptibility class,host strain YMC14/01/R921,S
same,antibiotic susceptibility test value,host strain YMC14/01/R921,0.5
same,antibiotic susceptibility class,host strain YMC14/01/R941,S
same,antibiotic susceptibility test value,host strain YMC14/01/R941,0.5
same,antibiotic susceptibility class,host strain YMC14/01/R958,S
same,antibiotic susceptibility test value,host strain YMC14/01/R958,0.5
same,antibiotic susceptibility class,host strain YMC14/01/R1006,S
same,antibiotic susceptibility test value,host strain YMC14/01/R1006,0.5
same,antibiotic susceptibility class,host strain YMC14/01/R1199,S
same,antibiotic susceptibility test value,host strain YMC14/01/R1199,0.5
same,antibiotic susceptibility class,host strain YMC14/01/R1659,S
same,antibiotic susceptibility test value,host strain YMC14/01/R1659,0.5
same,antibiotic susceptibility class,host strain YMC14/01/R1722,S
same,antibiotic susceptibility test value,host strain YMC14/01/R1722,0.5
same,antibiotic susceptibility class,host strain YMC14/01/R1752,S
same,antibiotic susceptibility test value,host strain YMC14/01/R1752,0.5
same,antibiotic susceptibility class,host strain YMC14/01/R2429,S
same,antibiotic susceptibility test value,host strain YMC14/01/R2429,0.5
same,antibiotic susceptibility class,host strain YMC14/01/R2572,S
same,antibiotic susceptibility test value,host strain YMC14/01/R2572,0.5
same,antibiotic susceptibility class,host strain YMC14/01/R2855,S
same,antibiotic susceptibility test value,host strain YMC14/01/R2855,0.5
same,antibiotic susceptibility class,host strain YMC14/01/R2945,S
same,antibiotic susceptibility test value,host strain YMC14/01/R2945,0.5
same,antibiotic susceptibility class,host strain YMC14/01/R3007,S
same,antibiotic susceptibility test value,host strain YMC14/01/R3007,0.5
same,antibiotic susceptibility class,host strain YMC14/01/R3129,S
same,antibiotic susceptibility test value,host strain YMC14/01/R3129,0.5
same,antibiotic susceptibility class,host strain YMC14/01/R3317,S
same,antibiotic susceptibility test value,host strain YMC14/01/R3317,0.5
same,antibiotic susceptibility class,host strain YMC14/01/R3474,S
same,antibiotic susceptibility test value,host strain YMC14/01/R3474,0.5
same,antibiotic susceptibility class,host strain YMC14/01/R3574,S
same,antibiotic susceptibility test value,host strain YMC14/01/R3574,0.5
same,antibiotic susceptibility class,host strain YMC14/01/U313,S
same,antibiotic susceptibility test value,host strain YMC14/01/U313,0.5
same,antibiotic susceptibility class,host strain YMC14/01/U318,S
same,antibiotic susceptibility test value,host strain YMC14/01/U318,0.5
same,antibiotic susceptibility class,host strain YMC14/02/L18,S
same,antibiotic susceptibility test value,host strain YMC14/02/L18,0.5
same,antibiotic susceptibility class,host strain YMC14/02/P47,S
same,antibiotic susceptibility test value,host strain YMC14/02/P47,0.5
same,antibiotic susceptibility class,host strain YMC14/02/R1860,S
same,antibiotic susceptibility test value,host strain YMC14/02/R1860,0.5
same,antibiotic susceptibility class,host strain YMC14/02/R2417,S
same,antibiotic susceptibility test value,host strain YMC14/02/R2417,0.5
same,antibiotic susceptibility class,host strain YMC14/02/R2599,S
same,antibiotic susceptibility test value,host strain YMC14/02/R2599,0.5
same,antibiotic susceptibility class,host strain YMC14/02/R2668,S
same,antibiotic susceptibility test value,host strain YMC14/02/R2668,0.5
same,antibiotic susceptibility class,host strain YMC14/02/R2758,S
same,antibiotic susceptibility test value,host strain YMC14/02/R2758,0.5
same,antibiotic susceptibility class,host strain YMC14/02/R2781,S
same,antibiotic susceptibility test value,host strain YMC14/02/R2781,0.5
same,antibiotic susceptibility class,host strain YMC14/02/R3106,S
same,antibiotic susceptibility test value,host strain YMC14/02/R3106,0.5
same,antibiotic susceptibility class,host strain YMC14/02/R3419,S
same,antibiotic susceptibility test value,host strain YMC14/02/R3419,0.5
same,antibiotic susceptibility class,host strain YMC14/02/U1607,S
same,antibiotic susceptibility test value,host strain YMC14/02/U1607,0.5
same,antibiotic susceptibility class,host strain YMC14/03/L9,S
same,antibiotic susceptibility test value,host strain YMC14/03/L9,0.5
same,antibiotic susceptibility class,host strain YMC14/03/P471,S
same,antibiotic susceptibility test value,host strain YMC14/03/P471,0.5
same,antibiotic susceptibility class,host strain YMC14/03/R122,S
same,antibiotic susceptibility test value,host strain YMC14/03/R122,0.5
same,antibiotic susceptibility class,host strain YMC14/03/R217,S
same,antibiotic susceptibility test value,host strain YMC14/03/R217,0.5
same,antibiotic susceptibility class,host strain YMC14/03/R380,S
same,antibiotic susceptibility test value,host strain YMC14/03/R380,0.5
same,antibiotic susceptibility class,host strain YMC14/03/R618,S
same,antibiotic susceptibility test value,host strain YMC14/03/R618,0.5
same,antibiotic susceptibility class,host strain YMC14/03/R2144,S
same,antibiotic susceptibility test value,host strain YMC14/03/R2144,0.5
same,antibiotic susceptibility class,host strain YMC14/03/U4616,S
same,antibiotic susceptibility test value,host strain YMC14/03/U4616,0.5
same,antibiotic susceptibility class,host strain YMC14/04/R1078,S
same,antibiotic susceptibility test value,host strain YMC14/04/R1078,0.5
same,antibiotic susceptibility class,host strain YMC14/04/R1080,S
same,antibiotic susceptibility test value,host strain YMC14/04/R1080,0.5
same,antibiotic susceptibility S/I/R,host strain YMC14/06/R2359,R
same,antibiotic susceptibility value,host strain YMC14/06/R2359,16
same,susceptibility category (S/I/R),host strain YMC14/06/R2359,R
same,susceptibility test value (number given before S/I/R),host strain YMC14/06/R2359,16
same,antibiotic susceptibility S/I/R,host strain YMC14/08/R1169,R
same,antibiotic susceptibility value,host strain YMC14/08/R1169,16
same,susceptibility category (S/I/R),host strain YMC14/08/R1169,R
same,susceptibility test value (number given before S/I/R),host strain YMC14/08/R1169,16
same,antibiotic susceptibility S/I/R,host strain YMC14/08/T90,R
same,antibiotic susceptibility value,host strain YMC14/08/T90,16
same,susceptibility category (S/I/R),host strain YMC14/08/T90,R
same,susceptibility test value (number given before S/I/R),host strain YMC14/08/T90,16
same,antibiotic susceptibility S/I/R,host strain YMC15/02/R436,R
same,antibiotic susceptibility value,host strain YMC15/02/R436,8
same,susceptibility category (S/I/R),host strain YMC15/02/R436,R
same,susceptibility test value (number given before S/I/R),host strain YMC15/02/R436,8
same,antibiotic susceptibility S/I/R,host strain YMC15/02/T28,R
same,antibiotic susceptibility value,host strain YMC15/02/T28,16
same,susceptibility category (S/I/R),host strain YMC15/02/T28,R
same,susceptibility test value (number given before S/I/R),host strain YMC15/02/T28,16
same,antibiotic susceptibility S/I/R,host strain YMC15/03/R1604,R
same,antibiotic susceptibility value,host strain YMC15/03/R1604,16
same,susceptibility category (S/I/R),host strain YMC15/03/R1604,R
same,susceptibility test value (number given before S/I/R),host strain YMC15/03/R1604,16
same,antibiotic susceptibility S/I/R,host strain YMC15/09/R1869,R
same,antibiotic susceptibility value,host strain YMC15/09/R1869,16
same,susceptibility category (S/I/R),host strain YMC15/09/R1869,R
same,susceptibility test value (number given before S/I/R),host strain YMC15/09/R1869,16
same,antibiotic susceptibility S/I/R,host strain YMC16/01/P11,S
same,antibiotic susceptibility value,host strain YMC16/01/P11,0.5
same,susceptibility category (S/I/R),host strain YMC16/01/P11,S
same,susceptibility test value (number given before S/I/R),host strain YMC16/01/P11,0.5
same,antibiotic susceptibility S/I/R,host strain YMC16/01/R123,S
same,antibiotic susceptibility value,host strain YMC16/01/R123,0.5
same,susceptibility category (S/I/R),host strain YMC16/01/R123,S
same,susceptibility test value (number given before S/I/R),host strain YMC16/01/R123,0.5
same,antibiotic susceptibility S/I/R,host strain YMC16/01/R198,S
same,antibiotic susceptibility value,host strain YMC16/01/R198,0.5
same,susceptibility category (S/I/R),host strain YMC16/01/R198,S
same,susceptibility test value (number given before S/I/R),host strain YMC16/01/R198,0.5
same,antibiotic susceptibility S/I/R,host strain YMC16/01/R353,S
